In ChEMBL document CHEMBL1201862, “PubChem BioAssay data set” (2004):
Active and inactive are the calls of the source.

Experiments:
[1] = target: T1, Polyadenylate-binding protein 1 (Homo sapiens, UniProt P11940); assay: MLLE binding blockers, Cy5 peptide tracer – biochemical, fluorescence polarization, Cy5-PAM2 peptide, secondary, miRNA deadenylation inhibitor project, dose response (AID 602260); type: functional; conditions: read-out: IC50_Mean
[2] = target: T2, Dual specificity protein phosphatase 3 (Homo sapiens, UniProt P51452); assay: MOA VHR1 Fluorescent secondary assay for identification of redox-state modulating compounds. [Related pubchem assays (depositor defined):AID1654, AID1661, AID1878, AID1957]
T2 sequence (P51452 whole entry): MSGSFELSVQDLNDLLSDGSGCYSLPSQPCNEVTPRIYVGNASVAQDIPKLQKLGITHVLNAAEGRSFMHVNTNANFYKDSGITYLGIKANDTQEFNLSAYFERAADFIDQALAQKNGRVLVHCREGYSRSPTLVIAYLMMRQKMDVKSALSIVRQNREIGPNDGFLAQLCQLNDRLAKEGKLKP

[3] = target: T3, Tyrosine-protein phosphatase non-receptor type 7 (Homo sapiens, UniProt P35236); assay: redox-active compounds inhibiting HePTP phosphatase – biochemical, fluorescence, mechanism study (AID 2068); type: functional
T3 sequence (P35236 whole entry): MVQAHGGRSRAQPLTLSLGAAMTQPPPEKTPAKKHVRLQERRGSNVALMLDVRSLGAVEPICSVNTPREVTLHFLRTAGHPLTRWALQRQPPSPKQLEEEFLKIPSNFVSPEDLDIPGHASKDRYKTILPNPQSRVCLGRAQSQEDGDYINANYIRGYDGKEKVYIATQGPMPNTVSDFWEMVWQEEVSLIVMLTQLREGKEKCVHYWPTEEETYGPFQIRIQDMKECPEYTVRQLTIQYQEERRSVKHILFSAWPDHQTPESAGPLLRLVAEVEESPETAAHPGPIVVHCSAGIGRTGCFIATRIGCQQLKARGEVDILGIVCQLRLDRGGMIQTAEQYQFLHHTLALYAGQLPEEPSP

[4] = target: T1, Polyadenylate-binding protein 1; assay: MLLE domain peptide-binding blockers, IC50 – biochemical, fluorescence polarization, FITC-PAM2 peptide, dose response (AID 602259); type: functional; conditions: read-out: IC50_Mean
[5] = target: T2, Dual specificity protein phosphatase 3; assay: SAR VHR1 Fluorescent Assay for In Vitro dose response studies. [Related pubchem assays (depositor defined):AID1654, AID1661, AID1878, AID1992, AID2004, AID2070, AID2085]; type: functional
[6] = target: Dual specificity protein phosphatase 6 (Rattus norvegicus, UniProt Q64346); type: functional;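 further: confirmatory in vitro dose-response testing of MKP-3 inhibition; recombinant His-tagged MKP-3 made in E. coli BL21 with OMFP substrate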
Sequence of Dual specificity protein phosphatase 6 (Q64346 whole entry): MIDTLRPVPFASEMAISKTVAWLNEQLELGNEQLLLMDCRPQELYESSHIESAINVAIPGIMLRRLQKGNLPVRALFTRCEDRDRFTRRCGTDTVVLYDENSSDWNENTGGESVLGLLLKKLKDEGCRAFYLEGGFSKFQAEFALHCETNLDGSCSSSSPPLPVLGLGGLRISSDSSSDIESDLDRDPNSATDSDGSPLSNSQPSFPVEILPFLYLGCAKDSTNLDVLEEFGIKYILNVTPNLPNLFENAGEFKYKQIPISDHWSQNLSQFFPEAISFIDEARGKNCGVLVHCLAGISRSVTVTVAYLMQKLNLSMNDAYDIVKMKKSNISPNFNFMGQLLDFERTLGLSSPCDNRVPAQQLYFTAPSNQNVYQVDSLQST

[7] = target: T2, Dual specificity protein phosphatase 3; assay: SAR VHR1 absorbance Assay for In Vitro dose response studies. [Related pubchem assays (depositor defined):AID1654, AID1661, AID1878, AID1992, AID2004]
ORF 73 = ORF 73 (Human herpesvirus 8, UniProt O40947); assay: KSHV LANA DNA-binding disruption – biochemical, fluorescence polarization, cherry-picked samples, dose response (AID 504725); parameters: species or system Human gammaherpesvirus 8;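 further: fluorescence polarization of a labeled DNA duplex reporting LANA DNA binding; potency is for inhibitors that block LANA binding to the DNA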
Sequence of ORF 73 (O40947 whole entry): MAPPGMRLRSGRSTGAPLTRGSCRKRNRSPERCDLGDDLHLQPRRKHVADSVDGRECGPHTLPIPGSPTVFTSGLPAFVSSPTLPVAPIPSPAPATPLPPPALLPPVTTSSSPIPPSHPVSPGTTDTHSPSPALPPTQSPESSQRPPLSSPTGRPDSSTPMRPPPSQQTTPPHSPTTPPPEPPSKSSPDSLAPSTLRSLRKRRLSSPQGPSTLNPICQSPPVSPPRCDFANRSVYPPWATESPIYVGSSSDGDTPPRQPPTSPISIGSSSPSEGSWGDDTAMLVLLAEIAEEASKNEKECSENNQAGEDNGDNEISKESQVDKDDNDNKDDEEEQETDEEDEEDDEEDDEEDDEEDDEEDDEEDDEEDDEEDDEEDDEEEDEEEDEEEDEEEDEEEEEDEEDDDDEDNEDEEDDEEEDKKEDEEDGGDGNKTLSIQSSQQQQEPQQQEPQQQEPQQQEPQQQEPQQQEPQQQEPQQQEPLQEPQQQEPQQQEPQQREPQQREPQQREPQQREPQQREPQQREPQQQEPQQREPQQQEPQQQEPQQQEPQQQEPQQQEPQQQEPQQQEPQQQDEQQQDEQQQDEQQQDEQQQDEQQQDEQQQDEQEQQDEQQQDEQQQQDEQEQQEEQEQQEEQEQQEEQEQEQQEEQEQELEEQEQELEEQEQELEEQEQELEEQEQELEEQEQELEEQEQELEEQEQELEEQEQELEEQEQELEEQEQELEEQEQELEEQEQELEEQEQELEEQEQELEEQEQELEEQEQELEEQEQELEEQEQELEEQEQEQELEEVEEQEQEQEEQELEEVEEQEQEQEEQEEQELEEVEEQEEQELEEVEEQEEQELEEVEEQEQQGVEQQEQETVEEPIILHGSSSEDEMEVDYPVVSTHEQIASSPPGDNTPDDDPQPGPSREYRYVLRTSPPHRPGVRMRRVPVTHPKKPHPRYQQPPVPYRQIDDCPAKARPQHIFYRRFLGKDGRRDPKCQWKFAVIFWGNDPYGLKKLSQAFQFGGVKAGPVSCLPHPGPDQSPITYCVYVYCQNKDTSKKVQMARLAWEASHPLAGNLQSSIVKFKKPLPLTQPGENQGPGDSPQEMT

Insulin-degrading enzyme [8] = target: T4, Insulin-degrading enzyme (Homo sapiens, UniProt P14735); assay: recombinant IDE activation, cell-free – biochemical, fluorescence polarization, counter-screen for IDE activator project, dose response (AID 588681)
T4 sequence (P14735 whole entry): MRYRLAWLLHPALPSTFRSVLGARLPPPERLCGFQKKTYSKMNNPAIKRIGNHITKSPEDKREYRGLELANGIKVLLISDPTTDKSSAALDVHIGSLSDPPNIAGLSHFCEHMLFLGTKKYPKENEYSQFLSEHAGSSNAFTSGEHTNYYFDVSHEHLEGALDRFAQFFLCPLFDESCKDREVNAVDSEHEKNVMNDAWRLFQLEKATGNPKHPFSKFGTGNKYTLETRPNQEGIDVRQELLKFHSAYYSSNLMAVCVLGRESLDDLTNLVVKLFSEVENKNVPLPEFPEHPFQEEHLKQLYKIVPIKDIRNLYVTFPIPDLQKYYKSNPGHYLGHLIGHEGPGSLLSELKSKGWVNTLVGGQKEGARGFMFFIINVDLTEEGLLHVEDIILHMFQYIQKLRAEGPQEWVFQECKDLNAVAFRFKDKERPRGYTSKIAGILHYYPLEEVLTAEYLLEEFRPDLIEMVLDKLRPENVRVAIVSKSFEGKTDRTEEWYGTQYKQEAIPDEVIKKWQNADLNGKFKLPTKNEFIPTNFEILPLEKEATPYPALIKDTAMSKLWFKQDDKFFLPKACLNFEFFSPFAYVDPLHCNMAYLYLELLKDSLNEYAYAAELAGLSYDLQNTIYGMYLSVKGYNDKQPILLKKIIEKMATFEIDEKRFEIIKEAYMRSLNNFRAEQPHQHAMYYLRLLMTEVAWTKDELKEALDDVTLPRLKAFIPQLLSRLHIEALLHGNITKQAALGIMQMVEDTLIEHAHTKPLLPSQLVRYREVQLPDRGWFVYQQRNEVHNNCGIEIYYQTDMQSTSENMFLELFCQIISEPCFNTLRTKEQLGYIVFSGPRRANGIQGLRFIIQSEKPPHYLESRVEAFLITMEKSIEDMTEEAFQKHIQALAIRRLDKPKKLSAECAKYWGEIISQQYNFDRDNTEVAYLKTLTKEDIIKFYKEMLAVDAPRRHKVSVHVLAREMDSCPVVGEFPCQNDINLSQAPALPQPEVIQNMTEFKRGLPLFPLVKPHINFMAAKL

HEK293 [9] = assay: membrane integrity loss in HEK cells – cell-based, fluorescence, cytotoxicity control for IDE activator project, dose response (AID 588440); type: functional; conditions: Homo sapiens;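 further: cytotoxicity by LDH release measuring loss of membrane integrity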
Keap1/Nrf2 = Keap1/Nrf2 (Homo sapiens, UniProt Q14145); assay: disruptors of Keap1 binding to Nrf2 peptide – biochemical, fluorescence polarization, cherry-picked samples, dose response (AID 588683)
Sequence of Keap1/Nrf2 (Q16236 whole entry, the tested form may be a part): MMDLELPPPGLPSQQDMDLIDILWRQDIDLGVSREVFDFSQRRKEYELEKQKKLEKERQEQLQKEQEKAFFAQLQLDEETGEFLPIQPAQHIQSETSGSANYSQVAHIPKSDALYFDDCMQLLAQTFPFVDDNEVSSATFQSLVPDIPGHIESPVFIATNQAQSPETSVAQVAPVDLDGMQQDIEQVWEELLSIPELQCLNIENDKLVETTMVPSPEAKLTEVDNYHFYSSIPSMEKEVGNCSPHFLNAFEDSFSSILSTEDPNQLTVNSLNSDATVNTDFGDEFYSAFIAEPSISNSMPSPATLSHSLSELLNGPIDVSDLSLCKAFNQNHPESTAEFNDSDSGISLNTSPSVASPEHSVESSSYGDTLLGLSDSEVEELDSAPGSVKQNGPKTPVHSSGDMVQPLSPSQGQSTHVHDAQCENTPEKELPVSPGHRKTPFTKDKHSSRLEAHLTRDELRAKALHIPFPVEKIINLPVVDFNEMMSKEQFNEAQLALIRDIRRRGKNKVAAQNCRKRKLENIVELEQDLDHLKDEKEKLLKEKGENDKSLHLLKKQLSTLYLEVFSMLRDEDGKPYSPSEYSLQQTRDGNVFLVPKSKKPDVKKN
Sequence of Keap1/Nrf2 (Q14145 whole entry, the tested form may be a part): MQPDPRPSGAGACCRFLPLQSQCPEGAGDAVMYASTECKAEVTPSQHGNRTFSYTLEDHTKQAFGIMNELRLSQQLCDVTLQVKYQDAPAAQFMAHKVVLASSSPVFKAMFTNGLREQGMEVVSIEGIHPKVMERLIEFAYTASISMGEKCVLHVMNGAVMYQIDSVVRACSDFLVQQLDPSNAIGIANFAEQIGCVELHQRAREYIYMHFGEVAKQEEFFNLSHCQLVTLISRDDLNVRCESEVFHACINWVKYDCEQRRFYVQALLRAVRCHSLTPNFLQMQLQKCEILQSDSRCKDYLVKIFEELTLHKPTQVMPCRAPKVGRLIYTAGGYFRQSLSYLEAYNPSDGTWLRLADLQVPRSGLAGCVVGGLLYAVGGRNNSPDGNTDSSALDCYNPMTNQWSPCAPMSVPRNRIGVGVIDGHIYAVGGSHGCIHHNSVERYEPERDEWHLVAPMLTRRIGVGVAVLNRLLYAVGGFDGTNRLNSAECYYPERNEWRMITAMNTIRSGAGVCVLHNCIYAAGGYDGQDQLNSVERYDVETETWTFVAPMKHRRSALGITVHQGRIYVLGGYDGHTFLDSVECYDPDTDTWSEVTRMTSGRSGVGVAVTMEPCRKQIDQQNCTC

CHO = CHO cell viability loss, potency – luminescence, cytotoxicity control for TLR9-MyD88 binding inhibitor project, dose response (AID 588339); type: functional, cell-based, hamster; conditions: Cricetulus griseus;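 further: CHO cells stably coexpressing TLR9 and MyD88 fusions from primary screen; compound exposure lasted 48 hours before viability readout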
Insulin-degrading enzyme [10] = target: T4, Insulin-degrading enzyme; assay: cellular IDE activation of Abeta substrate cleavage – fluorescence polarization, HEK cells, dose response (AID 588439); type: functional, cell-based
[11] = target: UDP-galactopyranose mutase (Mycobacterium tuberculosis, UniProt P9WIQ1); assay: Inhibitors of Mycobacterium tuberculosis UDP-galactopyranose mutase (UGM) enzyme Measured in Biochemical System Using Plate Reader - 2105-02_Inhibitor_Dose_CherryPick_Activity. [Related pubchem assays (depositor defined):AID504439]
Sequence of UDP-galactopyranose mutase (P9WIQ1 whole entry): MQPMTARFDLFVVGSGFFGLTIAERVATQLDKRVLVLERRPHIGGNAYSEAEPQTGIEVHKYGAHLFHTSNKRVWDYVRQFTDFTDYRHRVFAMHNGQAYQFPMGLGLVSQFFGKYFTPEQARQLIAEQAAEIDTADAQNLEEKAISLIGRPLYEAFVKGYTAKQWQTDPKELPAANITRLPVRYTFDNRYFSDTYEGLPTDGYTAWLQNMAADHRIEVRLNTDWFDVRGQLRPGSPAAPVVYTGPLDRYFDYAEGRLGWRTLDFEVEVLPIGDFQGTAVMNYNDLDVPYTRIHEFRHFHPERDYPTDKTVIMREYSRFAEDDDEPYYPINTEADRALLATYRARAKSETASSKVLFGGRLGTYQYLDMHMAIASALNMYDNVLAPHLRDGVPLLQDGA

HEK293 [12] = assay: optical interference in Abeta FP readout, dose response, artefact control for IDE activator project, biochemical, fluorescence polarization (AID 588442); type: functional, cell-based; conditions: Homo sapiens
Beta Lactamase = Beta Lactamase (Pseudomonas aeruginosa, UniProt Q932Y6); assay: BLA reporter interference, concentration series – BLA reporter cells, FRET fluorescence, artefact control for TLR9-MyD88 binding inhibitor project, dose response (AID 588341); type: cell-based;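 further: cell based assay in CHO-K1 cells stably expressing beta-lactamase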
Sequence of Beta Lactamase (Q932Y6 whole entry): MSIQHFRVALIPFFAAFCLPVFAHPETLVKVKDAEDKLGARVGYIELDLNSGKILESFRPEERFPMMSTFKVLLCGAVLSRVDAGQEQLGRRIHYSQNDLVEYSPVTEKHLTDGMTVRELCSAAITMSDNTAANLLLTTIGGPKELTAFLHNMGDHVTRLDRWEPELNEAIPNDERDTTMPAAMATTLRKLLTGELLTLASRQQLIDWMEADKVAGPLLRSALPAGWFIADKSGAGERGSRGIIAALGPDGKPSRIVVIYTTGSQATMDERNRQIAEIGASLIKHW

T1 sequence (P11940 whole entry): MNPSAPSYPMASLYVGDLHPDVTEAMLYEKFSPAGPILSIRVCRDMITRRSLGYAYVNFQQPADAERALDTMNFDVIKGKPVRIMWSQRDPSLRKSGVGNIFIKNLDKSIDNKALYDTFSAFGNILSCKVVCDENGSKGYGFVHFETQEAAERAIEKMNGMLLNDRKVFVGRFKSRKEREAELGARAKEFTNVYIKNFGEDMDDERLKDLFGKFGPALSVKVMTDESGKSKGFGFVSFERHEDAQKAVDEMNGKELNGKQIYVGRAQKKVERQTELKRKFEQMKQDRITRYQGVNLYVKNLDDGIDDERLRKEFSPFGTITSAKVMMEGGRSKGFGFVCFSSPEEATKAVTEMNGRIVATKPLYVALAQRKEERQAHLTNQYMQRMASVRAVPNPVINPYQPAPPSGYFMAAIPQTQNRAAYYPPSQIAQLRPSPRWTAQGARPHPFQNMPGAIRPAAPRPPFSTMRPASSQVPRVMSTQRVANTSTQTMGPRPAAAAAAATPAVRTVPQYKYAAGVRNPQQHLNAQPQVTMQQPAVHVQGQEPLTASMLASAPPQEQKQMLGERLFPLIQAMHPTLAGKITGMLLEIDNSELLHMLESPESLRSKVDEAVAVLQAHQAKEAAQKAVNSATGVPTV

Row | SMILES | IC50 [1] | IC50 [2] | IC50 [3] | IC50 [4] | IC50 [5] | IC50 [6] | IC50 [7] | AC50 (ORF 73) | EC50 (Insulin-degrading enzyme [8]) | IC50 (HEK293 [9]) | AC50 (Keap1/Nrf2) | IC50 (CHO) | EC50 (Insulin-degrading enzyme [10]) | AC50 [11] | EC50 (HEK293 [12]) | IC50 (Beta Lactamase)
1 | COc1cc(C(=S)N2CCC(C)CC2)ccc1O | > 66 µM (inactive) | 1.21 µM (active) | 1.61 µM (active) | > 66 µM (inactive) | 30.4 µM (active) | > 100 µM (inactive) | > 100 µM (inactive) | – | – | – | – | – | – | – | – | –
2 | CC(C)CCN1C(=O)c2cccc3c(N)ccc(c23)C1=O | – | – | – | – | – | – | – | 5.98 µM (active) | > 54.7 µM (inactive) | > 89.3 µM (inactive) | 1.71 µM (active) | > 49.8 µM (inactive) | > 54.7 µM (inactive) | 2.84 µM (active) | 13.2 µM (inactive) | 4.77 µM (active)
